Results published in the supplement of paper PMC8498969.

What was measured:
HEK293 [1] = experiment: cytotoxicity IC50 (ATP content, uninfected cells); higher = less cytotoxic; conditions: infection: none
HEK293 [2] = experiment: IC50 for inhibition of ZIKV NS1 production
Method: (§1)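 HEK293 cells in 1536-well plates were pre-treated with compound for 1 h, infected with ZIKV (MOI 1) for 24 h, and NS1 antigen (intra- plus extracellular) was measured by TR-FRET. Confirmation used 11-point 1:3 dilutions, and IC50 and maximal inhibition were fitted in GraphPad Prism.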

HEK293 [3] = experiment: maximal inhibition of ZIKV NS1 production (% inhibition); higher = stronger antiviral effect
Method: as §1

SMILES	cytotoxicity IC50 (HEK293 [1]) [µM]	IC50 (HEK293 [2]) [µM]	maximal inhibition (HEK293 [3])
COc1cccc(-c2ccc(NC(=O)C3=C(C(=O)O)CCC3)c(F)c2)c1	1.9	4	107
C[C@@]12C(=O)OC(=O)[C@]1(C)[C@H]1CC[C@@H]2O1	> 100	5.5	100
C[C@@H]1C[C@@H]([C@H](O)CC2CC(=O)NC(=O)C2)C(=O)[C@@H](C)C1	> 100	0.29	102
CC(C)C[C@H](NC(=O)[C@H](CCc1ccccc1)NC(=O)CN1CCOCC1)C(=O)N[C@@H](Cc1ccccc1)C(=O)N[C@@H](CC(C)C)C(=O)[C@@]1(C)CO1	0.32	0.16	90
O=C1C(SCCO)=C(SCCO)C(=O)c2ccccc21	5.3	5.5	97
C=C1C(=O)O[C@H]2[C@H]1CC/C(C)=C/CC[C@@]1(C)O[C@@H]21	20	43	106
CC[C@@H]([C@H](C)O)n1ncn(-c2ccc(N3CCN(c4ccc(OC[C@@H]5CO[C@@](Cn6cncn6)(c6ccc(F)cc6F)C5)cc4)CC3)cc2)c1=O	9.7	18	73
C[C@H](NCc1ccc2c(c1)nc(NC(=O)c1ccc(-c3cn[nH]c3)s1)n2CCc1ccccc1)C(C)(C)C	> 100	17	98
S=c1nc[nH]c2nc[nH]c12	6.5	12	99
CC(C)(O)Cn1c(NC(=O)c2ccc(-c3cn[nH]c3)s2)nc2cc(CN3CCOCC3)ccc21	> 100	8.3	103
COc1cc([C@@H]2c3cc4c(cc3[C@H](O)[C@H]3COC(=O)[C@@H]23)OCO4)cc(OC)c1OC	> 100	2.6	68
COC(=O)[C@]12CCC(C)(C)C[C@H]1[C@H]1C(=O)C=C3[C@@]4(C)C=C(C#N)C(=O)C(C)(C)[C@@H]4CC[C@@]3(C)[C@]1(C)CC2	2.7	0.28	100
CC1=C(O)C(=O)C=C2C1=CC=C1[C@@]2(C)CC[C@@]2(C)[C@@H]3C[C@](C)(C(=O)O)CC[C@]3(C)CC[C@]12C	2.2	3.4	106
CCC[C@H](Nc1nc(-c2ccc(NC(=O)NCC)c(OC)c2)ncc1C)c1cccnc1	> 100	0.17	72
COc1cccc2nc(-c3cccs3)nc(NN3C(=O)C=C(C)C3=O)c12	50	11	103
CC[C@]1(O)C[C@@H]2CN(CCc3c([nH]c4ccccc34)[C@@](C(=O)OC)(c3cc4c(cc3OC)N(C)[C@H]3[C@@](O)(C(N)=O)[C@H](O)[C@]5(CC)C=CCN6CC[C@]43[C@@H]65)C2)C1	> 100	0.66	66
CC(C)C[C@H](NC(=O)CNC(=O)c1cc(Cl)ccc1Cl)B1OC(=O)C(CC(=O)O)(CC(=O)O)O1	1.6	0.2	94
FC(F)c1nc2ccccc2n1-c1nc(N2CCOCC2)nc(N2CCOCC2)n1	60	3.9	85
CCC[C@@H](C=O)NC(=O)[C@H](CC(C)C)NC(=O)[C@H](CC(C)C)NC(=O)OCc1ccccc1	2.4	1.6	94
CN(C)CCN(C)C(=O)c1ccc(NC(=O)Nc2ccc(-c3nc(N4CCOCC4)c4ccn(CC(F)(F)F)c4n3)cc2)cc1	3.4	2.9	76
CCCCCC[C@H]1C(=O)O[C@H](C)[C@H](NC(=O)c2cccc(NC=O)c2O)C(=O)O[C@@H](C)[C@@H]1OC(=O)CC(C)C	0.0055	0.012	94
CCc1cnn2c(NCc3ccc[n+]([O-])c3)cc(N3CCCC[C@H]3CCO)nc12	> 100		90
CC(C)COCC(CN(Cc1ccccc1)c1ccccc1)N1CCCC1 (centres undefined)	> 100	43	55
Cn1c(CCCC(=O)O)nc2cc(N(CCCl)CCCl)ccc21	> 100	50	92
CCc1nc(N)nc(N)c1-c1ccc(Cl)cc1	14	45	88
O=C(Nc1cc(C(F)(F)F)cc(C(F)(F)F)c1)c1cc(Cl)ccc1O	0.71	3.9	99
CN(Cc1cnc2nc(N)nc(N)c2n1)c1ccc(C(=O)N[C@@H](CCC(=O)O)C(=O)O)cc1	0.24	0.46	95
Cc1ccccc1C(=O)c1ccc(Nc2ccc(Br)cc2N)cc1Cl	> 100	40	68

SMILES	cytotoxicity IC50 (HEK293 [1]) [µM]	IC50 (HEK293 [2]) [µM]	maximal inhibition (HEK293 [3])
CC[C@H](CC#N)OC(=O)N[C@@H](C)c1cccc(NC(=O)Nc2ccc(-c3cnco3)c(OC)c2)c1	20	0.14	99
C1CCC(C(CC2CCCCN2)C2CCCCC2)CC1 (centres undefined)	50	45	98
C/C=C(/C)C(=O)O[C@H]1C(C)=C2[C@H]([C@@H]1OC(=O)CCCCCCC)[C@@](C)(OC(C)=O)C[C@H](OC(=O)CCC)[C@@]1(O)[C@H]2OC(=O)[C@@]1(C)O	40	0.17	93
Cn1cc(-c2[nH]c3cc(NC(=O)[C@H](N)C4CCCCC4)cc4c3c2C=NNC4=O)cn1	> 100	0.49	104
O=C1/C(=C/c2ccccc2)C[C@@]2(O)[C@H]3Cc4ccc(O)c5c4[C@@]2(CCN3CC2CC2)[C@H]1O5	2.4	7.2	106
COc1cccc2c1C(=O)c1c(O)c3c(c(O)c1C2=O)C[C@@](O)(C(=O)CO)C[C@@H]3O[C@H]1C[C@H](N)[C@@H](O)[C@H](C)O1	> 100	0.49	84
O=C(Cc1ccc(-c2ccc(OCCN3CCOCC3)cc2)cn1)NCc1ccccc1	19	0.48	50
Cc1cc(C2CCCCC2)n(O)c(=O)c1	20	14	100
C[C@@H]1O[C@@H](O[C@@H]2C=C3CC[C@@H]4[C@H](CC[C@]5(C)[C@@H](c6ccc(=O)oc6)CC[C@]45O)[C@@]3(C)CC2)[C@H](O)[C@H](O)[C@H]1O	0.011	0.027	105
C#CCC(Cc1cnc2nc(N)nc(N)c2n1)c1ccc(C(=O)N[C@@H](CCC(=O)O)C(=O)O)cc1 (some centres undefined)	0.46	0.45	101
C=C1C(=O)[C@]23[C@H](O)[C@H]1CC[C@H]2[C@@]12CO[C@]3(O)[C@@H](O)[C@@H]1C(C)(C)CC[C@@H]2O	40	17	108
COc1cc(OC)c(/C=C/S(=O)(=O)Cc2ccc(OC)c(NCC(=O)O)c2)c(OC)c1	> 100	1.4	61
CC(C)c1ccc(Cn2ccc3c4c(N)nc(NC5CC5)nc4ccc32)cc1	78	3	106
CC[C@@]1([C@@H]2O[C@@H]([C@H]3O[C@@](O)(CO)[C@H](C)C[C@@H]3C)C[C@@H]2C)CC[C@H]([C@]2(C)CC[C@]3(C[C@H](O)[C@@H](C)[C@@H]([C@@H](C)[C@@H](OC)[C@H](C)C(=O)O)O3)O2)O1	> 100	2.8	103
OCCN1CCN(CCCN2c3ccccc3Sc3ccc(C(F)(F)F)cc32)CC1	> 100	25	84
Cc1[nH]nc2ccc(-c3cncc(OC[C@@H](N)Cc4ccccc4)c3)cc12	0.36	5.1	97
C[C@]12O[C@H](C[C@]1(O)CO)n1c3ccccc3c3c4c(c5c6ccccc6n2c5c31)CNC4=O	15	1.7	58
Cn1c(=O)n(-c2ccc(C(C)(C)C#N)cc2)c2c3cc(-c4cnc5ccccc5c4)ccc3ncc21	0.53	3.2	82
Cc1cc(Nc2cc(N3CCN(C)CC3)nc(Sc3ccc(NC(=O)C4CC4)cc3)n2)n[nH]1	> 100	14	107
[O-][n+]1ccccc1SSc1cccc[n+]1[O-]	0.16	1.4	98
CCCCc1ccc2[nH]c(NC(=O)OC)nc2c1	3	0.69	80
CC(C)(O)/C=C/C(=O)[C@](C)(O)[C@H]1[C@H](O)C[C@@]2(C)[C@@H]3CC=C4[C@@H](C=C(O)C(=O)C4(C)C)[C@]3(C)C(=O)C[C@]12C	3	45	52
Cc1nc(N)nc(N)c1-c1ccc(Cl)c(Cl)c1	1.5	2	102
O=C1NC(=O)[C@@H](c2cn3c4c(cccc24)CCC3)[C@@H]1c1c[nH]c2ccccc12	1.6	18	86
CCC(=O)N1CCN(c2ccc(-n3c(=O)ccc4cnc5ccc(-c6cnc7ccccc7c6)cc5c43)cc2C(F)(F)F)CC1	1.5		
CC(C)(C)CC(C)(C)c1ccc(OCCOCC[N+](C)(C)Cc2ccccc2)cc1		9	103
CC[C@@H]1C(=O)N(C)c2cnc(Nc3ccc(C(=O)NC4CCN(C)CC4)cc3OC)nc2N1C1CCCC1	> 100		
